Values of other authors, collected in patent publication US20140370086A1, “SUBLINGUAL IMMUNOTHERAPY WITH REDUCED ORAL ITCHINESS” (priority 2013, published 2014).

Conditions: at high doses

O=C(O)c1cc(=O)c2c(OCC(O)COc3cccc4oc(C(=O)O)cc(=O)c34)cccc2o1 [Cromolyn, Cromolyn sodium (cromoglicic acid)]
toxicity: no toxicity at high doses
